# Reference: patent publication US5690904A, “Diagnostic radiopharmaceutical compounds (That)” (priority 1995, dated 1997)
# How the values were obtained:
# [1] = Biodistribution of 99mTc labelled complexes in rats (Tc brain bioassay, Example 64, Table I); type: in vivo, Female Sprague-Dawley rats; conditions: rat, i.v. tail vein
# Procedure: Distribution of the ^99m Tc labelled compounds was evaluated in rats. Female Sprague-Dawley rats weighing 140 to 220 g (average 170 g) were anaesthetised with sodium pentobarbital and were injected in a tail vein with 0.05 to 10mCi of the ^99m Tc labelled complex in a volume of 0.2 to 0.5 ml. At least two rats were injected for each time point.
# The animals were sacrificed at 5 and 30 minutes post injection and selected organs were removed; the tails were discarded to avoid interference from the injection site. The radioactivity in each organ was measured at a standard geometry with a […] sodium iodide scintillation counter adjusted for the 140 KeV emission of ^99m Tc. The organs were also weighed to one hundredth of a gram and the activity was calculated as a percent of administered dose per gram. The important determinations are the amount of activity in the brain and the brain:blood ratio.
# [2] = Electrophoresis of 99mTc complexes (charge); type: physicochemical
# Description: After labelling, and if required, the resultant ^99m Tc chelate complexes can be purified by passing through a C-18 Sep Pak column.
# [3] = 0.1M NaH2PO4, pH 6.8, 200 volts, 30 min
# [4] = 0.05M NaH2PO4, pH 4.5, 300 volts, 30 min
# [5] = 0.1M NaH2PO4, pH 6.8, 250 volts, 25 min
SMILES,Brain % dose ([1]; 5 min post injection),Brain:blood ([1]; 5 min post injection),Heart % dose ([1]; 5 min post injection),Heart:blood ([1]; 5 min post injection),Brain % dose ([1]; 30 min post injection),Brain:blood ([1]; 30 min post injection),Heart % dose ([1]; 30 min post injection),Heart:blood ([1]; 30 min post injection),"Electrophoresis (charge) [2, 3]","Electrophoresis (charge) [2, 4]","Brain:blood ([1]; 5 min post injection, 5 min)","Heart:blood ([1]; 5 min post injection, 5 min)","Brain:blood ([1]; 30 min post injection, 30 min)","Heart:blood ([1]; 30 min post injection, 30 min)","Electrophoresis (charge) ([2]; 0.05M NaH2PO4, pH 4.5, 300 volts, 35 min)","Electrophoresis (charge) [2, 5]"
"CCCC[SH]1C(C)(C)C(=O)[N]2CC[N]3c4ccccc4[S][Tc]231=[O] (stereo not shown) [Example T714, ^99m Tc complex of N[2-(((2-methyl-2-butylthio)propionyl)amino)ethyl]-2-amino-thiophenol]",1.43 % dose,3.11,0.82 % dose,3.67,0.50 % dose,1.66,0.27 % dose,1.79,–,–,–,–,–,–,–,–
"C#CC[SH]1C(C)(C)C(=O)[N]2CC[N]3c4ccccc4[S][Tc]231=[O] (stereo not shown) [Example T722, ^99m Tc complex of N[2-(((2-methyl-2-(2-propynylthio))propionyl)amino)ethyl]-2-(4-methoxybenzylthio)aniline]",1.58 % dose,0.57,0.74 % dose,0.67,0.68 % dose,0.31,0.48 % dose,0.52,–,–,–,–,–,–,–,–
"CC1(C)C(=O)[N]2CC[N]3c4ccccc4[S][Tc]23(=[O])[SH]1CCCN (stereo not shown) [Example T728, ^99m Tc complex of N[2-(((2-methyl-2-(3-aminopropylthio))propionyl)amino)ethyl]-2-(4-methoxybenzylthio) aniline]",0.03 % dose,0.04,1.68 % dose,4.36,0.03 % dose,0.05,0.74 % dose,2.11,–,–,–,–,–,–,–,–
"CC1(C)C(=O)[N]2CC[N]3c4ccccc4[S][Tc]23(=[O])[SH]1CCO (stereo not shown) [Example T726, ^99m Tc complex of N[2-(((2-methyl-2-(2-hydroxyethylthio))propionyl)amino)ethyl]-2-(4-methoxybenzylthio) aniline]",1.11 % dose,1.82,0.73 % dose,3.22,0.32 % dose,0.93,0.28 % dose,2.08,neutral,–,–,–,–,–,–,–
"C[SH]1c2ccccc2[N]2CC(=O)[N]3CC(C)(C)[S][Tc]321=[O] (stereo not shown) [Example T729, ^99m Tc complex of N[2-oxo-2(N^1 ((2-methyl-2-mercapto)propyl)amino)ethyl]-2-methylthioaniline]",0.87 % dose,0.19,0.70 % dose,0.34,0.21 % dose,0.08,0.28 % dose,0.36,–,neutral,–,–,–,–,–,–
"C=CC[SH]1C(C)(C)C(=O)[N]2CC[N]3c4ccccc4[S][Tc]231=[O] (stereo not shown) [Example T719, ^99m Tc complex of N[2-(((2-methyl-2-allylthio)propionyl)amino)ethyl]-2-(4-methoxybenzylthio)aniline]",1.86 % dose,–,0.78 % dose,–,0.48 % dose,–,0.40 % dose,–,–,–,1.32,1.36,0.26,0.55,–,–
"C=CC[SH]1C(C)(C)C(=O)[N]2CC[N]3c4ccccc4[S][Tc]231=[O] (stereo not shown) [Example T721, ^99m Tc complex of N[2-(((-methyl-2-allylthio)propionyl)amino)ethyl]-2-aminothiopenol]",1.82 % dose,–,0.75 % dose,–,0.30 % dose,–,0.36 % dose,–,neutral,–,1.23,1.16,0.21,0.49,–,–
"COC(=O)C[SH]1C(C)(C)C(=O)[N]2CC[N]3c4ccccc4[S][Tc]231=[O] (stereo not shown) [Example T727, ^99m Tc complex of N[2-(((2-methyl-2-(methoxycarbonylmethylenethio))propionyl)amino)ethyl]-2-(4-methoxybenzylthio)aniline]",0.09 % dose,0.09,0.45 % dose,1.26,0.07 % dose,0.06,0.18 % dose,0.42,–,–,–,–,–,–,neutral,–
"CC1(C)C(=O)[N]2CC[N]3c4ccccc4[S][Tc]23(=[O])[SH]1CCCl (stereo not shown) [Example T730, ^99m Tc complex of N[2-(((2-methyl-2-(2-chloroethylthio))propionyl)amino)ethyl]-2-(4-methoxybenzylthio)aniline]",2.45 % dose,6.1,0.71 % dose,3.97,0.73 % dose,1.8,0.29 % dose,1.53,–,neutral,–,–,–,–,–,–
"CC1(C)C(=O)[N]2CC[N]3c4ccccc4[S][Tc]23(=[O])[SH]1CCC#N (stereo not shown) [Example T731, ^99m Tc complex of N[2-(((2-methyl-2-(2-cyanoethylthio))propionyl)amino)ethyl]-2-(4-methoxybenzylthio)aniline]",1.49 % dose,0.42,1.01 % dose,0.68,0.60 % dose,0.21,0.58 % dose,0.42,–,neutral,–,–,–,–,–,–
C[SH]1C(C)(C)C(=O)[N]2CC[N]3c4ccccc4[S][Tc]231=[O] (stereo not shown) [Example T711],2.33 % dose,4.24,0.88 % dose,3.38,0.47 % dose,1.54,0.23 % dose,1.51,–,–,–,–,–,–,–,neutral
"CCC[SH]1c2ccccc2[N]2CC[N]3C(=O)C(C)(C)[S][Tc]321=[O] (stereo not shown) [Example T717, ^99m Tc N[2-(((2-methyl-2-mercapto)propionyl)amino)ethyl]-2-propylthioaniline]",1.27 % dose,1.21,0.98 % dose,1.88,1.24 % dose,1.23,0.48 % dose,1.00,neutral,–,–,–,–,–,–,–
"CCC[SH]1C(C)(C)C(=O)[N]2CC[N]3c4ccccc4[S][Tc]231=[O] (stereo not shown) [Example T713, ^99m Tc complex of N[2-(((2-methyl-2-propylthio)propionyl)amino)ethyl]-2-amino-thiophenol]",1.55 % dose,4.34,0.59 % dose,3.68,0.46 % dose,1.83,0.19 % dose,1.84,–,–,–,–,–,–,–,neutral
"CC[SH]1C(C)(C)C(=O)[N]2CC[N]3c4ccccc4[S][Tc]231=[O] (stereo not shown) [Example T715, ^99m Tc complex of N[2-(((2-methyl-2-ethylthio)propionyl)amino)ethyl]-2-amino-thioplhenol]",2.55 % dose,5.19,0.84 % dose,3.73,0.51 % dose,1.36,0.23 % dose,1.40,–,–,–,–,–,–,–,–
